# Test results from BindingDB's records for doi:10.1073/pnas.86.24.9762 (Oregon Health Sciences University, 1989).
# Target: D(2) dopamine receptor (Homo sapiens, UniProt P14416)
# Sequence (P14416 whole entry): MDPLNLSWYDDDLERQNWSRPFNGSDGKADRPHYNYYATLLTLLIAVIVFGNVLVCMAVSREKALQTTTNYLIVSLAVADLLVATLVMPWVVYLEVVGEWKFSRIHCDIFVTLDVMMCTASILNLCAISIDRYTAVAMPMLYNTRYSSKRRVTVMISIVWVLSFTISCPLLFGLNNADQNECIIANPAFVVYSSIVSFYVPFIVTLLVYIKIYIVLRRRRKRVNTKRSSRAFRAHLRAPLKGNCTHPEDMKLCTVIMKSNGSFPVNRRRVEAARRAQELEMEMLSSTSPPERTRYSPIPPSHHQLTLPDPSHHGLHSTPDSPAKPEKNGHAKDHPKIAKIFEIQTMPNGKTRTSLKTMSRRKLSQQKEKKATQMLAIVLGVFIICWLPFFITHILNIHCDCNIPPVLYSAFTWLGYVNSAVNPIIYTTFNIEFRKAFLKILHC
smiles,measurement,value
CN1CCN2c3ccccc3Cc3ccccc3[C@H]2C1 [MIANSERIN (+)],Ki,2680 nM
